Assay results from patent publication US20220387403A1, “COMPOUNDS, COMPOSITIONS AND METHODS FOR TREATING NASH, NAFLD, AND OBESITY” (CVI Pharmaceuticals Limited, priority 2019, published 2022).
Like-named read-outs stand apart in the source and are kept apart here.

Tests used:
LDLR mRNA = LDLR mRNA expression in HepG2 cells, quantitative real-time RT-PCR; type: cell-based, human; settings: 24 hours; for Activity on LDLR mRNA expression (Fold of control): dose less than or equal to 10 μM; for Activity on LDLR mRNA at 40 uM (fold of control) / Activity on LDLR mRNA at 10 uM (fold of control): mean ± s.d.
Method: Activities of some compounds of Formulas I, II, III, and IV on LDLR mRNA expression were determined. HepG2 cells were treated with new compounds individually at a dose less than or equal to 10 μM for 24 hours. Total RNA was harvested for quantitative real-time RT-PCR analysis using the method described in Example 16B. […] In these experiments, berberine chloride was included for comparison. […]
Total RNA was harvested for quantitative real-time RT-PCR analysis using method described in Examples 16B.
The effects of 23 compounds on the mRNA expressions of LDLR and PCSK9 were examined using quantitative real-time RT-PCR assays. HepG2 cells were treated with various compounds at 10 and 40 uM concentrations for 24 hours. Total RNA was isolated and 2 μg was used to generate cDNA in a reaction containing random primers and M-MLV at 37° C. for 1 h in a volume of 25 μl. Real-time PCR was performed on the cDNA using MCEP REALPLEX 2 SYSTEM (Eppendorf) and Universal MasterMix (Applied Biosystems). Human LDLR, PCSK9, and GAPDH Pre-Developed TaqMan Assay Reagents (Applied Biosystems) were used to assess the levels of mRNA expressions in HepG2. The levels of LDLR and PCSK9 mRNA were normalized to that of GAPDH. Each RNA samples was assayed in duplicate. The fold activity was calculated by dividing mRNA abundance in compound treated cells with that of control.

HepG2 cells = assay: DiI-LDL uptake (LDLR ligand uptake activity) in HepG2 cells; type: cell-based, human; settings: for Activity on DiI-LDL uptake: A, compound dose ≤ 10 μM, 20 hours
Method: HepG2 cells (2×10^5 cells/well) in 24-well culture plates were treated with various compounds at indicated concentrations for 20 hours. The fluorescent 1.1′-dioctadecyl-3,3,3′,3′-tetramethylindocarbocyanin perchlorate (DiI-LDL) (Biomedical Technologies, Stoughton, Mass.) at a concentration of 2 μg/mL was added to cells at the end of treatment. After 4 hours, the medium was removed, cells were washed with cold PBS, and were examined immediately under a fluorescent microscope (Nikon) at 200× amplification. The fluorescent intensity in compound-treated cells was compared to that in untreated control cells. […] In these experiments berberine chloride was used for comparison.
The combined beneficial effects of these novel compounds on elevation of LDLR mRNA levels likely through the mechanism of mRNA stabilization and their inhibitory activity towards PCSK9, the secreted protease that degrades LDLR protein, result in strong increases in LDL ligand uptake activity through increased receptor surface abundance. […] Briefly, HepG2 cells (2×10^5 cells/well) in 24-well culture plates were treated with various compounds at 10 and 40 uM concentrations for 20 hours. The fluorescent 1. 1′-dioctadecyl-3,3,3′, 3′-tetramethylindocarbocyanin perchlorate (DiI-LDL) (Biomedical Technologies, Stoughton, Mass.) at a concentration of 2 μg/ml was added to cells at the end of treatment. After 4 hours, the medium was removed; cells were washed with cold PBS, and were examined immediately under a fluorescent microscope (Nikon) at 200× amplification. The fluorescent intensity in compound-treated cells was compared to that in untreated control cells. […]

hyperlipidemic rabbits [1] = assay: Lipid lowering effects and blood chemistry in hyperlipidemic rabbits; settings: for serum total cholesterol level: in mM
hyperlipidemic rabbits [2] = settings: rabbit, in vivo
NAFLD hamster model = assay: High fat and high cholesterol diet induced NAFLD hamster model; type: in vivo; settings: C128 10, 20 and 40 mg/kg; fenofibrate 50 mg/kg; 4 weeks
Method: In a high fat and high cholesterol diet (HFHCD) induced non-alcoholic fat liver disease (NAFLD) hamster model, hamsters were fed a HFHCD for two weeks then treated for 4 weeks with C128 at 10 mg/kg, 20 mg/kg and 40 mg/kg, along with fenofibrate at 50 mg/kg as a positive control. Serum lipids and liver enzymes were measured using standard techniques. Liver tissue histopathology with Oil-red O staining and H&E staining were also performed.
In a high fat and high cholesterol diet (HFHCD) induced NAFLD hamster model, hamsters were fed a HFHCD for two weeks then treated for 4 weeks with C127 at 80 mg/kg or with fenofibrate 50 mg/kg.

[3] = 40 uM, 20 hours (second symbol of the cell)
[4] = after 14 days of drug treatment, mean, n = 6
[5] = treatment day 0 (before the drug treatment), mean ± SD, n = 6
[6] = treatment day 4, 128(+)/128(−) 30 mg/kg, SMV/ATV 3 mg/kg once a day oral gavage
[7] = treatment day 7, 128(+)/128(−) 30 mg/kg, SMV/ATV 3 mg/kg once a day oral gavage
[8] = treatment day 10, from day 7 128(+)/128(−) 60 mg/kg, SMV/ATV 10 mg/kg
[9] = treatment day 14, from day 7 128(+)/128(−) 60 mg/kg, SMV/ATV 10 mg/kg
[10] = 10 uM, 20 hours (first symbol of the cell)

COc1ccc2c(c1O)CN1CCc3cc4c(cc3C1C2)OCO4 (stereo not drawn) [Compound 34, 10-methoxy-5,6,7,8,13,13a-hexahydro-2H-1,3-dioxolano[4,5-g]isoquinolino[3,2-a]isoqunolin-9-ol]
Activity on LDLR mRNA expression (Fold of control) (LDLR mRNA): 1.76 ± 0.17 Fold of control
Activity on DiI-LDL uptake (HepG2 cells): ++

COc1ccc2c(c1)CCN1Cc3c(ccc(OC)c3OS(=O)(=O)c3ccccc3)CC21 (stereo not drawn) [Compound 115, 3,10-Dimethoxy-5,6,7,8,13,13a-hexahydroisoquinolino[2,1-b]isoquinolin-9-yl benzenesulfonate]
Activity on LDLR mRNA at 40 uM (fold of control) (LDLR mRNA): 2.65 ± 0.06 fold of control
Activity in LDL uptake (relative to control) (HepG2 cells; [3]): +++

COc1cc(NC(=O)Oc2c(OC)ccc3c2CN2CCc4cc5c(cc4C2C3)OCO5)cc(OC)c1 (stereo not drawn) [Compound 45]
Activity on LDLR mRNA expression (Fold of control) (LDLR mRNA): 2.09 ± 0.11 Fold of control
Activity on DiI-LDL uptake (HepG2 cells): ++

CC(C)c1c(C(=O)Nc2ccccc2)c(-c2ccccc2)c(-c2ccc(F)cc2)n1CC[C@@H](O)C[C@@H](O)CC(=O)O [ATV, atorvastatin, reference compound]
HDL-C (hyperlipidemic rabbits [1]; [4]): 3.6 mmol/L
LDL-C (hyperlipidemic rabbits [1]; [4]): 29.6 mmol/L
TC (hyperlipidemic rabbits [1]; [4]): 33.9 mmol/L
TG (hyperlipidemic rabbits [1]; [4]): 1.7 mmol/L
serum total cholesterol level (hyperlipidemic rabbits [1]; [5]): 28.9 ± 6.0
serum total cholesterol level (hyperlipidemic rabbits [1]; [6]): 26.5 ± 5.2
serum total cholesterol level (hyperlipidemic rabbits [1]; [7]): 31.5 ± 4.9
serum total cholesterol level (hyperlipidemic rabbits [1]; [8]): 32.5 ± 4.5
serum total cholesterol level (hyperlipidemic rabbits [1]; [9]): 33.9 ± 6.5
ALP (hyperlipidemic rabbits [2]): 333.5 IU/L
ALT (hyperlipidemic rabbits [2]): 795.6 IU/L
AST (hyperlipidemic rabbits [2]): 767.0 IU/L
CK (hyperlipidemic rabbits [2]): 7270.0 U/L
CREA (hyperlipidemic rabbits [2]): 238.2 µmol/L
GLU (hyperlipidemic rabbits [2]): 6.7 mmol/L
LDH (hyperlipidemic rabbits [2]): 675.0 IU/L

COc1ccc2c(c1OC(=O)Nc1ccc(OC(F)(F)F)cc1)CN1CCc3cc4c(cc3C1C2)OCO4 (stereo not drawn) [Compound 44, (10-methoxy(5,6,7,8,13,13a-hexahydro-2H-1,3-dioxolano[4,5-g]isoquinolino[3,2-a]isoquinolin-9-yloxy))-N-[4-(trifluoromethoxy)phenyl]carbox-amide]
Activity on LDLR mRNA expression (Fold of control) (LDLR mRNA): 2.20 ± 0.06 Fold of control
Activity on DiI-LDL uptake (HepG2 cells): ++

COc1ccc2c(c1OS(=O)(=O)c1ccccc1)CN1CCc3cc(C)ccc3C1C2 (stereo not drawn) [Compound 121, 10-Methoxy-3-methyl-5,6,7,8,13,13a-hexahydroisoquinolino[2,1-b]isoquinolin-9-yl benzenesulfonate]
Activity on LDLR mRNA at 10 uM (fold of control) (LDLR mRNA): 3.56 ± 0.03 fold of control
Activity on LDLR mRNA at 40 uM (fold of control) (LDLR mRNA): 3.43 ± 0.81 fold of control

CCOC(=O)Oc1c(OC)ccc2c1CN1CCc3cc4c(cc3C1C2)OCO4 (stereo not drawn) [Compound 48, 10-methoxy-5,6,7,8,13,13a-hexahydro-2H-1,3-dioxolano[4,5-g]isoquinolino[3,2-a]isoquinolin-9-yl ethoxyformate]
Activity on LDLR mRNA expression (Fold of control) (LDLR mRNA): 1.45 ± 0.15 Fold of control

COc1ccc2c(c1OC(=O)NC(C)C)CN1CCc3cc4c(cc3C1C2)OCO4 (stereo not drawn) [Compound 41, (10-methoxy(5,6,7,8,13,13a-hexahydro-2H-1,3-dioxolano[4,5-g]isoquinolino[3,2-a]isoquinolin-9-yloxy))-N-(methylethyl)carboxamide]
Activity on LDLR mRNA expression (Fold of control) (LDLR mRNA): 1.60 ± 0.03 Fold of control
Activity on DiI-LDL uptake (HepG2 cells): ++

COc1ccc2c(c1OC(=O)Nc1ccccc1)CN1CCc3cc4c(cc3C1C2)OCO4 (stereo not drawn) [Compound 61, (10-methoxy(5,6,7,8,13,13a-hexahydro-2H-1,3-dioxolano[4,5-g]isoquinolino[3,2-a]isoquinolin-9-yloxy))-N-benzamide]
Activity on LDLR mRNA expression (Fold of control) (LDLR mRNA): 1.33 ± 0.53 Fold of control

COc1ccc2c(c1)CCN1Cc3c(cccc3OS(=O)(=O)c3cccc(F)c3)CC21 (stereo not drawn) [Compound 150, 3-methoxy-5,6,7,8,13,13a-hexahydroisoquinolino[2,1-b]isoquinolin-9-yl 3-fluorobenzenesulfonate]
Activity in LDL uptake (relative to control) (HepG2 cells; [10]): +/+
Activity in LDL uptake (relative to control) (HepG2 cells; [3]): +/+

CN1CCc2cc3c(cc2[C@H]1[C@@H]1O[C@H](O)c2c1ccc1c2OCO1)OCO3 [d-(+)-EGN, (+)-egenine]
Activity on DiI-LDL uptake (HepG2 cells): +

COc1cc2c(cc1OC)C1C(C)c3ccc(OC)c(OS(=O)(=O)c4ccccc4)c3CN1CC2 (stereo not drawn) [Compound 139, 2,3,10-Trimethoxy-13-methyl-5,6,7,8,13,13a-hexahydro-isoquinolino[2,1-b]isoquinolin-9-yl benzensulfonate]
Activity on LDLR mRNA at 10 uM (fold of control) (LDLR mRNA): 11.5 ± 1.29 fold of control
Activity on LDLR mRNA at 40 uM (fold of control) (LDLR mRNA): 3.02 ± 0.34 fold of control

COc1ccc2c(c1OS(=O)(=O)c1ccccc1)CN1CCc3cc4c(cc3C1C2)OCCO4 (stereo not drawn) [Compound 116, 11-Methoxy-6,7,8,9,14,14a-hexahydro-2H,3H-1,4-dioxano[5,6-g]isoquinolino[3,2-a]isoquinolin-10-yl benzenesulfonate]
Activity in LDL uptake (relative to control) (HepG2 cells; [10]): +++/+++
Activity in LDL uptake (relative to control) (HepG2 cells; [3]): +++/+++

CC(C)OC(=O)C(C)(C)Oc1ccc(C(=O)c2ccc(Cl)cc2)cc1 [fenofibrate, reference compound]
Body and liver weights (NAFLD hamster model): elevated by a statistically significant amount

CCC(C)(C)C(=O)O[C@H]1C[C@@H](C)C=C2C=C[C@H](C)[C@H](CC[C@@H]3C[C@@H](O)CC(=O)O3)[C@H]21 [SMV, simvastatin, reference compound]
ALP (hyperlipidemic rabbits [1]; [4]): 288.7 IU/L
CREA (hyperlipidemic rabbits [1]; [4]): 242.2 µmol/L
HDL-C (hyperlipidemic rabbits [1]; [4]): 2.9 mmol/L
LDH (hyperlipidemic rabbits [1]; [4]): 530.3 IU/L
LDL-C (hyperlipidemic rabbits [1]; [4]): 23.3 mmol/L
TC (hyperlipidemic rabbits [1]; [4]): 26.2 mmol/L
TG (hyperlipidemic rabbits [1]; [4]): 1.7 mmol/L
serum total cholesterol level (hyperlipidemic rabbits [1]; [5]): 28.8 ± 7.4
serum total cholesterol level (hyperlipidemic rabbits [1]; [6]): 24.8 ± 6.1
serum total cholesterol level (hyperlipidemic rabbits [1]; [7]): 26.1 ± 4.4
serum total cholesterol level (hyperlipidemic rabbits [1]; [8]): 25.4 ± 6.1
serum total cholesterol level (hyperlipidemic rabbits [1]; [9]): 26.2 ± 5.5
CK (hyperlipidemic rabbits [2]): 6492.8 U/L
GLU (hyperlipidemic rabbits [2]): 7.9 mmol/L

COc1ccc2c(c1)CCN1Cc3c(ccc(OC)c3OS(=O)(=O)c3ccccc3)C(C)C21 (stereo not drawn) [Compound 140, 3,10-Dimethoxy-13-methyl-5,6,7,8,13,13a-hexahydro-isoquinolino[2,1-b]isoquinolin-9-yl benzenesulfonate]
Activity on LDLR mRNA at 10 uM (fold of control) (LDLR mRNA): 6.65 ± 0.68 fold of control

COc1ccc2c(c1OC(=O)N(C)C)CN1CCc3cc4c(cc3C1C2)OCO4 (stereo not drawn) [Compound 43, (10-methoxy(5,6,7,8,13,13a-hexahydro-2H-1,3-dioxolano[4,5-g]isoquinolino[3,2-a]isoquinolin-9-yloxy))-N,N-dimethylcarboxamide]
Activity on LDLR mRNA expression (Fold of control) (LDLR mRNA): 1.95 ± 0.18 Fold of control
Activity on DiI-LDL uptake (HepG2 cells): ++

COc1ccc2c(c1OC(=O)Nc1cccc(C)c1)CN1CCc3cc4c(cc3C1C2)OCO4 (stereo not drawn) [Compound 46, (10-methoxy(5,6,7,8,13,13a-hexahydro-2H-1,3-dioxolano[4,5-g]isoquinolino[3,2-a]isoquinolin-9-yloxy))-N-(3-methylphenyl)carboxamide]
Activity on LDLR mRNA expression (Fold of control) (LDLR mRNA): 1.80 ± 0.16 Fold of control
Activity on DiI-LDL uptake (HepG2 cells): ++
